{"source": "patent US12280031B2", "about": "“Teriflunomide topical pharmaceutical compositions” (APRAMITHA INNOVATIONS PRIVATE LIMITED, priority 2018, dated 2025)", "origin": "cited, not measured here", "key": {"patients": {"tested_on": "patients", "conditions": "oral teriflunomide, dose-dependent"}}}
{"molecule": "C/C(O)=C(\\C#N)C(=O)Nc1ccc(C(F)(F)F)cc1", "note": "[Teriflunomide, (Z)-2-cyano-3-hydroxy-but-2-enoic acid-(4′-trifluoromethylphenyl)-amide]", "values": [{"measurement": "pKa", "value": 5.2}, {"measurement": "solubility in water", "setting": "water", "value": "very slightly soluble"}, {"measurement": "adverse effects", "setting": "patients", "value": "nausea, diarrhoea, hair thinning/decreased hair density, and elevated alanine aminotransferase (ALT) levels"}]}
